According to US7119115B2, “Indazole or indole derivatives, and use thereof in human medicine and more particularly in oncology” (Aventis Pharma S.A., priority 2001, dated 2006):

biological target: T1, Tubulin (Sus scrofa, UniProt P02550+P02554); test: Evaluation of the inhibition of tubulin polymerization (turbidimetry at 350 nm); assay type: biochemical; details: concentration that inhibits the rate of polymerization by 50%; pig brain tubulin 10 μM
T1 construct: Tubulin is purified from pig brain according to published methods; from tissue; host or cells: pig brain
Protocol: Briefly, the brains are ground and centrifuged in an extraction buffer. The tubulin contained in the supernatant of the extract undergoes two successive cycles of polymerization at 37° C. and depolymerization at 4° C., before being separated from the MAPs (Microtubule Associated Proteins) by chromatography on a phosphocellulose P11 column (Whatman). […] It is stored in a buffer known as RB/2 30% glycerol, the composition of which is 50 mM MES-NaOH [2-(N-morpholino)ethanesulphonic acid], pH 6.8; 0.25 mM MgCl2; 0.5 mM EGTA; 30% glycerol (v/v), 0.2 mM GTP (guanosine-5′-triphosphate).
The polymerization of tubulin to microtubules is monitored by turbidimetry as follows: the tubulin is adjusted to a concentration of 10 μM (1 mg/ml) in RB/2 30% glycerol buffer to which 1 mM GTP and 6 mM MgCl2 are added. […] The increase in the turbidity of the solution is monitored at 350 nm.
The products are dissolved at 10 mM in DMSO and added at variable concentrations (0.5 to 10 μM) to the tubulin solution before polymerization.

T1 sequence (P02550 whole entry): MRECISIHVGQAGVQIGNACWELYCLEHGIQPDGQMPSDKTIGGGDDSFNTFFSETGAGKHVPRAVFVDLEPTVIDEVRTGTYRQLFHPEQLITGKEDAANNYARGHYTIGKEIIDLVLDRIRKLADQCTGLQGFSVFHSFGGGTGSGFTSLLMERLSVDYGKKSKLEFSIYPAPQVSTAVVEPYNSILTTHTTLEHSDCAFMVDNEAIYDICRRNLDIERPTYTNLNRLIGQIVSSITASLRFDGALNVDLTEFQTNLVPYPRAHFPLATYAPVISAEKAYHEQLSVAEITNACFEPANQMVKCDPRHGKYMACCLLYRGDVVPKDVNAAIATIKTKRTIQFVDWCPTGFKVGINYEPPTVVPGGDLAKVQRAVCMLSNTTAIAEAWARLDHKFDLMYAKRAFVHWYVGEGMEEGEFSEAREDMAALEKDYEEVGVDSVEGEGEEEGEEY
T1 sequence (P02554 whole entry): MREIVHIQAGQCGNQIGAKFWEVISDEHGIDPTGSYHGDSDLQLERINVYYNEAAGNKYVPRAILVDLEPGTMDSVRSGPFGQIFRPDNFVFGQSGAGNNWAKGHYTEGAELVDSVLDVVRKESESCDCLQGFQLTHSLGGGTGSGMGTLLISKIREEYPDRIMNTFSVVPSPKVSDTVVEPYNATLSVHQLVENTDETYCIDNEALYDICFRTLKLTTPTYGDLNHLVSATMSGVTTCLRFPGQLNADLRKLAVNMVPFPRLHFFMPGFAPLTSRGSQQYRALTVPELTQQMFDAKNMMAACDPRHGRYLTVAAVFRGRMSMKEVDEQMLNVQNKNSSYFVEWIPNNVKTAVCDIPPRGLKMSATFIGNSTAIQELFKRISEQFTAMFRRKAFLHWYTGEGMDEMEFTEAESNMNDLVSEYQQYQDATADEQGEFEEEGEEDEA

Compound	IC50 [µM]
N#Cc1n[nH]c2c1C=CC(c1ccccc1)(c1ccccc1)C2 [Example 4, 6,6-Diphenyl-6,7-dihydro-1H-indazole-3-carbonitrile]	23
C1=CC(c2ccccc2)(c2ccccc2)Cc2[nH]nc(-c3cccnc3)c21 [Example 8-3, 6,6-Diphenyl-3-pyrid-3-yl-6,7-dihydro-1H-indazole]	6
O=C(c1cc[nH]c1)c1n[nH]c2c1C=CC(c1ccccc1)(c1ccccc1)C2 [Example 5-4, (6,6-Diphenyl-6,7-dihydro-1H-indazol-3-yl)-(1H-pyrrol-3-yl)methanone]	7
C1=CC(c2ccccc2)(c2ccccc2)Cc2[nH]nc(/C(=N/OCc3ccccc3)C3CC3)c21 [Example 6-8B, cyclopropyl(6,6-diphenyl-6,7-dihydro-1H-indazol-3-yl)methanone O-benzyloxime]	10
CCOC(=O)c1n[nH]c2c1C=CC(C)(c1ccccc1)C2 (racemic) [Example 9-1, Ethyl 6-(R,S)-6-methyl-6-phenyl-6,7-dihydro-1H-indazole-3-carboxylate]	18
CCOC(=O)c1n[nH]c2c1C=CC(c1ccc(OC)cc1)(c1ccc(OC)cc1)C2 [Example 10-1, Ethyl 6,6-bis(4-methoxyphenyl)-6,7-dihydro-1H-indazole-3-carboxylate]	15 to 20
ON=C(c1n[nH]c2c1C=CC(c1ccccc1)(c1ccc(F)cc1)C2)C1CC1 (single isomer, unassigned) [Example 10-5B]	6
COCCO/N=C(/c1n[nH]c2c1C=CC(c1ccccc1)(c1ccccc1)C2)C1CC1 [Example 6-7B, cyclopropyl(6,6-diphenyl-6,7-dihydro-1H-indazol-3-yl)methanone O-(2-methoxyethyl)oxime]	6
O=C(c1ccccc1)c1n[nH]c2c1C=CC(c1ccccc1)(c1ccccc1)C2 [Example 5-3, (6,6-Diphenyl-6,7-dihydro-1H-indazol-3-yl)phenylmethanone]	12.5
CCOC(=O)c1n[nH]c2c1C=CC(C)(c1ccccc1)C2 (single isomer, unassigned) [Example 9-2, ethyl 6-methyl-6-phenyl-6,7-dihydro-1H-indazole-3-carboxylate]	15
CCOC(=O)c1[nH]cc2c1C=CC(c1ccccc1)(c1ccccc1)C2 [Example 11, Ethyl 5,5-diphenyl-4,5-dihydro-2H-isoindole-1-carboxylate]	6.5
O/N=C(\c1n[nH]c2c1C=CC(c1ccccc1)(c1ccc(F)cc1)C2)C1CC1 (single isomer, unassigned) [Example 10-5E, cyclopropyl[6-(4-fluorophenyl)-6-phenyl-6,7-dihydro-1H-indazol-3-yl]methanone oxime]	6
Cc1ccc(S(=O)(=O)n2nc(N)c3c2CC(c2ccccc2)(c2ccccc2)C=C3)cc1 [Example 7-1, 6,6-Diphenyl-1-(4-toluenesulphonyl)-6,7-dihydro-1H-indazol-3-ylamine]	6
CN(C)CCO/N=C(/c1n[nH]c2c1C=CC(c1ccccc1)(c1ccccc1)C2)C1CC1 [Example 6-10B, cyclopropyl(6,6-diphenyl-6,7-dihydro-1H-indazol-3-yl)methanone O-(2-dimethylaminoethyl)oxime]	12
CCOC(=O)c1n[nH]c2c1C=CC(c1ccccc1)(c1ccc(OC)c(OC)c1)C2 (racemic) [Example 10-2, Ethyl 6-(R,S)-6-(3,4-dimethoxyphenyl)-6-phenyl-6,7-dihydro-1H-indazole-3-carboxylate]	4.5

Second part, the compound after the results:

IC50 [µM]	Compound
1.25	COC(=O)c1[nH]nc2c1C=CC(c1ccccc1)(c1ccccc1)C2 [Example 2-2, Methyl 6,6-diphenyl-6,7-dihydro-2H-indazole-3-carboxylate]
2.5	O=[N+]([O-])c1ccc(CO/N=C(/c2n[nH]c3c2C=CC(c2ccccc2)(c2ccccc2)C3)C2CC2)cc1 [Example 6-9B, cyclopropyl(6,6-diphenyl-6,7-dihydro-1H-indazol-3-yl)methanone O-(4-nitrobenzyl)oxime]
1.5	O=[N+]([O-])c1ccc(CO/N=C(\c2n[nH]c3c2C=CC(c2ccccc2)(c2ccccc2)C3)C2CC2)cc1 [Example 6-9A, cyclopropyl(6,6-diphenyl-6,7-dihydro-1H-indazol-3-yl)methanone O-(4-nitrobenzyl)oxime]
3	ON=C(c1n[nH]c2c1C=CC(c1ccccc1)(c1ccccc1)C2)C1CC1 (single isomer, unassigned) [Example 6-1B, cyclopropyl(6,6-diphenyl-6,7-dihydro-1H-indazol-3-yl)methanone oxime]
1.3	FCCO/N=C(/c1n[nH]c2c1C=CC(c1ccccc1)(c1ccccc1)C2)C1CC1 [Example 6-11B, cyclopropyl(6,6-diphenyl-6,7-dihydro-1H-indazol-3-yl)methanone O-(2-fluoroethyl)oxime]
1	FCCO/N=C(\c1n[nH]c2c1C=CC(c1ccccc1)(c1ccccc1)C2)C1CC1 [Example 6-11A, cyclopropyl(6,6-diphenyl-6,7-dihydro-1H-indazol-3-yl)methanone O-(2-fluoroethyl)oxime]
1.5	CCOC(=O)c1n[nH]c2c1C=CC(c1ccccc1)(c1ccccc1)C2C (stereo not drawn) [Example 13, Ethyl 7-methyl-6,6-diphenyl-6,7-dihydro-1H-indazole-3-carboxylate]
1.3	C1=CC(c2ccccc2)(c2ccccc2)Cc2[nH]nc(/C(=N\OCc3ccccc3)C3CC3)c21 [Example 6-8A, cyclopropyl(6,6-diphenyl-6,7-dihydro-1H-indazol-3-yl)methanone O-benzyloxime]
1	C1=CC(c2ccccc2)(c2ccccc2)Cc2[nH]nc(-c3ccccc3)c21 [Example 8-2, 3,6,6-Triphenyl-6,7-dihydro-1H-indazole]
0.8	O=C(c1n[nH]c2c1C=CC(c1ccccc1)(c1ccc(F)cc1)C2)C1CC1 (single isomer, unassigned) [Example 10-4B, cyclopropyl[6-(4-fluorophenyl)-6-phenyl-6,7-dihydro-1H-indazol-3-yl]methanone]
4.5	O=C(c1n[nH]c2c1C=CC(c1ccccc1)(c1ccccc1)C2)N1CC1 [Example 3-4, Aziridin-1-yl(6,6-diphenyl-6,7-dihydro-1H-indazol-3-yl)methanone]
1	CCOC(=O)c1n[nH]c2c1C=CC(c1ccc(F)cc1)(c1ccc(F)cc1)C2 [Example 10-6, Ethyl 6,6-bis(4-fluorophenyl)-6,7-dihydro-1H-indazole-3-carboxylate]
1.5	CCOC(=O)c1n[nH]c2c1C=CC(c1ccccc1)(c1ccc(F)cc1)C2 (single isomer, unassigned) [Example 10-3C, ethyl 6,6-(4-fluorophenyl)-6-phenyl-6,7-dihydro-1H-indazole-3-carboxylate]
3	C=CCON=C(c1n[nH]c2c1C=CC(c1ccccc1)(c1ccccc1)C2)C1CCC1 (single isomer, unassigned) [Example 6-5, Cyclobutyl(6,6-diphenyl-6,7-dihydro-1H-indazol-3-yl)methanone O-allyloxime]
3.7	CC(C)OC(=O)c1[nH]nc2c1C=CC(c1ccccc1)(c1ccccc1)C2 [Example 2-1, Isopropyl 6,6-diphenyl-6,7-dihydro-2H-indazole-3-carboxylate]
1.5	O/N=C(/c1n[nH]c2c1C=CC(c1ccccc1)(c1ccc(F)cc1)C2)C1CC1 (single isomer, unassigned) [Example 10-5D, cyclopropyl[6-(4-fluorophenyl)-6-phenyl-6,7-dihydro-1H-indazol-3-yl]methanone oxime]
1.8	COCCO/N=C(\c1n[nH]c2c1C=CC(c1ccccc1)(c1ccccc1)C2)C1CC1 [Example 6-7A, cyclopropyl(6,6-diphenyl-6,7-dihydro-1H-indazol-3-yl)methanone O-(2-methoxyethyl)oxime]
1.2	C=CCO/N=C(/c1n[nH]c2c1C=CC(c1ccccc1)(c1ccccc1)C2)C1CC1 [Example 6-6B, cyclopropyl(6,6-diphenyl-6,7-dihydro-1H-indazol-3-yl)methanone O-allyloxime]
1.2	C1=CC(c2ccccc2)(c2ccccc2)Cc2[nH]nc(-c3ccsc3)c21 [Example 8-4, 6,6-Diphenyl-3-thiophen-3-yl-6,7-dihydro-1H-indazole]
4.5	CN(C)CCO/N=C(\c1n[nH]c2c1C=CC(c1ccccc1)(c1ccccc1)C2)C1CC1 [Example 6-10A, cyclopropyl(6,6-diphenyl-6,7-dihydro-1H-indazol-3-yl)methanone O-(2-dimethylaminoethyl)oxime]
1.5	O=C(c1n[nH]c2c1C=CC(c1ccccc1)(c1ccc(F)cc1)C2)C1CC1 (single isomer, unassigned) [Example 10-4C, cyclopropyl[6-(4-fluorophenyl)-6-phenyl-6,7-dihydro-1H-indazol-3-yl]methanone]
